Experimental data from patent US20230257396A1, “MACROCYCLES AND THEIR USE” (BLOSSOMHILL THERAPEUTICS, INC., priority 2020, published 2023).
Positions count from the first letter of the chain named.

Key:
Experiment in all cases: KINOMEscan kinase binding assay (Eurofins/DiscoveRx), % Ctrl
kinases [1] = molecular target: T1, kinases (Homo sapiens, UniProt P00533, G719C); conditions: 1 μM; EGFR(G719C)
T1 construct: purchased Eurofins/DiscoveRx; host or cells: E. coli BL21-derived host (T7 phage display) for most kinases; HEK-293 for the rest
Outline: (§1)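 Competition binding, 1 h RT: phage-tagged or HEK-293-expressed DNA-tagged kinase + immobilized ligand + compound. Eluate kinase by qPCR. % Ctrl = (test − positive ctrl)/(negative ctrl − positive ctrl) × 100; lower means stronger binding.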

kinases [2] = molecular target: T2, kinases (Homo sapiens, UniProt P00533, DEL752-759); conditions: 1 μM; EGFR(S752-I759del)
T2 construct: purchased Eurofins/DiscoveRx; host or cells: E. coli BL21-derived host (T7 phage display) for most kinases; HEK-293 for the rest
Outline: as §1

kinases [3] = molecular target: T3, kinases (Homo sapiens, UniProt P36888, R834Q); conditions: 1 μM; FLT3(R834Q)
T3 construct: purchased Eurofins/DiscoveRx; host or cells: E. coli BL21-derived host (T7 phage display) for most kinases; HEK-293 for the rest
T3 sequence (P36888 27-993 R834Q): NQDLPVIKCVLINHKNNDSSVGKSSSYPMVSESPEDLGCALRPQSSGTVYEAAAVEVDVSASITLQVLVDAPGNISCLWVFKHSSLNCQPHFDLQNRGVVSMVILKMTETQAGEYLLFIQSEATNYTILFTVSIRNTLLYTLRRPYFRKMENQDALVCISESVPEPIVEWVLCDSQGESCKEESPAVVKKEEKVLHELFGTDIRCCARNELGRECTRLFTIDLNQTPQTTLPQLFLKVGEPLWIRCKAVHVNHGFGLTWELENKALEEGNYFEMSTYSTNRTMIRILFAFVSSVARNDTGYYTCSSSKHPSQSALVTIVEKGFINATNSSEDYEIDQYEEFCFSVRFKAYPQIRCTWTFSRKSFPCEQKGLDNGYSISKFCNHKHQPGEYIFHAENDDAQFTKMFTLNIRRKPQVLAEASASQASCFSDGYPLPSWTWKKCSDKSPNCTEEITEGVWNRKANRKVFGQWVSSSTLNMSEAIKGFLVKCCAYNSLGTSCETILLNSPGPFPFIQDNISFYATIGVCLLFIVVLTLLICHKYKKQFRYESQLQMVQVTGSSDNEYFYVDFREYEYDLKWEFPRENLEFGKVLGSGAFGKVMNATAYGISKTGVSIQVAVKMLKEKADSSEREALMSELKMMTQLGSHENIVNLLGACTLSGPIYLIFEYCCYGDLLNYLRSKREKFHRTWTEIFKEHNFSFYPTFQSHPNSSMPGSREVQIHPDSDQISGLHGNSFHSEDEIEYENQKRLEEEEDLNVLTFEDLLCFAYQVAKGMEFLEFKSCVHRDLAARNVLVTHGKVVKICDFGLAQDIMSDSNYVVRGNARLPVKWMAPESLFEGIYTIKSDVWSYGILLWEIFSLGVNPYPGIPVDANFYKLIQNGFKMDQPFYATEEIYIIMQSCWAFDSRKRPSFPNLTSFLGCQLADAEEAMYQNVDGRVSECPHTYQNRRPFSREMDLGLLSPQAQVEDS
Outline: as §1

kinases [4] = molecular target: T4, kinases (Homo sapiens, UniProt P00533, G719S); conditions: 1 μM; EGFR(G719S)
T4 construct: purchased Eurofins/DiscoveRx; host or cells: E. coli BL21-derived host (T7 phage display) for most kinases; HEK-293 for the rest
Outline: as §1

kinases [5] = molecular target: T5, kinases (Homo sapiens, UniProt P36888, D835V); conditions: 1 μM; FLT3(D835V)
T5 construct: purchased Eurofins/DiscoveRx; host or cells: E. coli BL21-derived host (T7 phage display) for most kinases; HEK-293 for the rest
T5 sequence (P36888 27-993 D835V): T3 sequence (P36888 27-993 R834Q) with Q808R, D809V
Outline: as §1

kinases [6] = molecular target: T6, kinases (Homo sapiens, UniProt P10721, V559D/V654A); conditions: 1 μM; KIT(V559D, V654A)
T6 construct: purchased Eurofins/DiscoveRx; host or cells: E. coli BL21-derived host (T7 phage display) for most kinases; HEK-293 for the rest
Outline: as §1

T6 sequence (P10721 26-976 V559D/V654A): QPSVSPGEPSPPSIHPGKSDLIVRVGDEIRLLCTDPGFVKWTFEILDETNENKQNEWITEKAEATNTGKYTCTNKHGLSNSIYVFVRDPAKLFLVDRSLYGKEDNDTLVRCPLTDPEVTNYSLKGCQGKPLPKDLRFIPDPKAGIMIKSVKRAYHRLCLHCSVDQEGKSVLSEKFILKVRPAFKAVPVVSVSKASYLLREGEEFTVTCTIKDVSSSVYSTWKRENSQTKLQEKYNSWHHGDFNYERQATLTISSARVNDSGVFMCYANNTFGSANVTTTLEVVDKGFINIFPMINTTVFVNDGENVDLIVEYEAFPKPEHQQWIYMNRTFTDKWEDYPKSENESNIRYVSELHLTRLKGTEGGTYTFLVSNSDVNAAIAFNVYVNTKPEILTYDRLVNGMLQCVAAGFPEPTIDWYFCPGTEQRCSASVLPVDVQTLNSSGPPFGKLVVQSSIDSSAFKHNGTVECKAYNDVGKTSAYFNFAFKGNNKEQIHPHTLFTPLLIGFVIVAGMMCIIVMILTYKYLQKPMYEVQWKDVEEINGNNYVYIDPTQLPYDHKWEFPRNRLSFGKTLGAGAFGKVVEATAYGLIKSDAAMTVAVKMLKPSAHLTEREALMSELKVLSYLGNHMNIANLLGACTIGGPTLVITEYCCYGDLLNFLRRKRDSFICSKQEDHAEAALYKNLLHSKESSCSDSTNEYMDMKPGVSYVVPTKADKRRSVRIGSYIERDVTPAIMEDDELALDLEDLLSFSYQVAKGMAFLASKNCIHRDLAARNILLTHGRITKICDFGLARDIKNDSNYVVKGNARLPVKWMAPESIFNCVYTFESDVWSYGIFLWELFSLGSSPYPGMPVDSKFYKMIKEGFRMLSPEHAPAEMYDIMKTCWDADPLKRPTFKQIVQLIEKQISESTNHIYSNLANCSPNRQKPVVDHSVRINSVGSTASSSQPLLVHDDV

Row | % Ctrl, EGFR(G719C) (kinases [1]) [% Ctrl] | % Ctrl, EGFR(S752-I759del) (kinases [2]) [% Ctrl] | % Ctrl, FLT3(R834Q) (kinases [3]) [% Ctrl] | % Ctrl, EGFR(G719S) (kinases [4]) [% Ctrl] | % Ctrl, FLT3(D835V) (kinases [5]) [% Ctrl] | % Ctrl, KIT(V559D, V654A) (kinases [6]) [% Ctrl] | SMILES
1 | 93 | 72 | 97 | 95 | 35 | 100 | Cc1cc2c([nH]1)/C=C1\C(=O)Nc3ccc(nc31)-c1ccccc1OCCCNC2=O [Ex.22, [3a(4)Z]-6-methyl-9,10,11,12-tetrahydro-1,18-(ethanediylidene)dipyrrolo[3,2-g:3′,4′-j][1,5,12]benzoxadiazacyclopentadecine-3,8(2H,5H)-dione]
2 | 70 | 80 | 93 | 77 | 35 | 91 | Cc1cc2c([nH]1)/C=C1\C(=O)Nc3ccc(cc31)-c1ccnn1CCOCCNC2=O [Ex.39, [19a(20)Z]-2-methyl-6,7,9,10-tetrahydro-1H-15,17-(ethanediylidene)pyrazolo[1,5-d]dipyrrolo[3,4-h:2′,3′-k][1,4,14]oxadiazacyclohexadecine-4,19(5H,18H)-dione]
3 | 71 | 74 | 100 | 76 | 100 | 100 | Cc1cc2c([nH]1)/C=C1\C(=O)Nc3cnc(nc31)N(C)CCCOCCN(C)C2=O [Ex.71, [17a(18)Z]-2,5,12-trimethyl-6,7,9,10,11,12-hexahydro-1H-13,15-(azenometheno)dipyrrolo[3,2-f:3′,4′-i][1,4,11,13]oxatriazacyclohexadecine-4,17(5H,16H)-dione]
4 | 92 | 63 | 29 | 87 | 0.05 | 8 | Cc1cc2c([nH]1)/C=C1\C(=O)Nc3ccc(cc31)OCCOCCN(C)C2=O [Ex.91, [16a(17)Z]-2,5-dimethyl-6,7,9,10-tetrahydro-1H-12,14-(ethanediylidene)dipyrrolo[3,2-i:3′,4′-l][1,4,7]dioxazacyclopentadecine-4,16(5H,15H)-dione]
5 | 73 | 54 | 39 | 77 | 1.5 | 62 | Cc1cc2c([nH]1)/C=C1\C(=O)Nc3ccc(cc31)CN(C)C(=O)COCCNC2=O [Ex.111, [17a(18)Z]-2,11-dimethyl-6,7,11,12-tetrahydro-1H-13,15-(ethanediylidene)dipyrrolo[3,2-f:3′,4′-i][1,4,14]oxadiazacyclohexadecine-4,10,17(5H,9H,16H)-trione]
6 | 90 | 93 | 100 | 94 | 91 | 79 | Cc1cc2c([nH]1)/C=C1\C(=O)Nc3cnc(cc31)-c1cnn(C)c1COCCNC2=O [Ex.123, [3a(4)Z]-6,14-dimethyl-10,11,13,14-tetrahydro-2H-17,1-(azenometheno)pyrazolo[4,3-m]dipyrrolo[3,2-f:3′,4′-i][1,4]oxazacyclopentadecine-3,8(5H,9H)-dione]
7 | 88 | 89 | 15 | 86 | 0.25 | 93 | Cc1cc2c([nH]1)/C=C1\C(=O)Nc3ccc(cc31)-c1ccnn1CCOCCN(C)C2=O [Ex. 41, [19a(20)Z]-2,5-dimethyl-6,7,9,10-tetrahydro-1H-15,17-(ethanediylidene)pyrazolo[1,5-d]dipyrrolo[3,4-h:2′,3′-k][1,4,14]oxadiazacyclohexadecine-4,19(5H,18H)-dione]
